# Experimental data as given in patent US20070099982A1, “Use of chp as an inhibitor of glutathione s-transferases and collagen IV” (priority 2003, published 2007).
# Read-outs that look alike come from different tables or passages of the source.
# How the values were obtained:
# collagen IV = settings: mean of 12 healthy subjects, 4×2 g CHP per day over 14 days
# Excerpt: CHP was repeatedly administered over 14 days, using 4×2 g of CHP per day.
# [1] = system: α-glutathione S transferase; settings: mean of 12 healthy subjects, 4×2.0 g CHP/day over 14 days
structure (smiles),measurement,setting,value
"O=C(O)[C@@H]1C[C@@H](O)CN1 (relative stereo) [CHP, cis-hydroxy-L-proline]","Concentration of collagen IV in serum, MEAN",collagen IV; day 0,115.39
same,"Concentration of collagen IV in serum, MEAN",collagen IV; day 7,93.03
same,"Concentration of collagen IV in serum, MEAN",collagen IV; day 13,99.79
same,"Concentration of collagen IV in serum, MEAN",collagen IV; day 13.25,92.87
same,"Concentration of collagen IV in serum, MEAN",collagen IV; day 14,97.77
same,"Concentration of collagen IV in serum, MEAN",collagen IV; day 17,93.45
same,"Concentration of α-glutathione S transferase in serum, MEAN",[1]; day 0,0.46
same,"Concentration of α-glutathione S transferase in serum, MEAN",[1]; day 7,0.37
same,"Concentration of α-glutathione S transferase in serum, MEAN",[1]; day 13,0.26
same,"Concentration of α-glutathione S transferase in serum, MEAN",[1]; day 13.25,0.20
same,"Concentration of α-glutathione S transferase in serum, MEAN",[1]; day 14,0.21
same,"Concentration of α-glutathione S transferase in serum, MEAN",[1]; day 17,0.18
